Structures can show the parent of a compound that is named as a salt. Where two headings read alike, the source gives them in different places.
Tests used:
[1] = system: UT-SCC-14; assay: Tumor cell proliferation (alamarBlue) cytotoxicity assay, UT-SCC-14; format: cell-based, human
Procedure: (§1) A tumor cell proliferation assay was used to determine cytotoxicity IC50 values for the phosphate prodrug Compounds 1-9, the parent non-phosphorylated SMDC parent compounds, and the effector (gemcitabine) across eight primary early-passage human head and neck squamous cell carcinoma cell lines including UT-SCC-5, UT-SCC-8, UT-SCC-9, UT-SCC-10, UT-SCC-14, UT-SCC-16A, UT-SCC-16B, and UT-SCC-24A.
(§2) UTSCC cells were seeded at 4000 cells/100 I/well on 96-well black clear-bottom tissue culture plate. Cells were incubated at 37° C. and 5% CO2 overnight to allow them to recover and re-attach. The next day cells were treated with the test compound (0-100 μM) for 72 hours. After treatment, cell proliferation was measured by Fluorescent quantitation of alamarBlue reagent. The alamarBlue assay incorporates a fluorometric/colorimetric growth indicator based on detection of metabolic activity. Specifically, resazurin, the active ingredient of alamarBlue reagent, is blue in color and virtually non-fluorescent. Upon entering cells, resazurin is reduced to resorufin, a compound that is red in color and highly fluorescent.
(§3) Continued cell growth maintains a reduced environment, therefore increasing the overall fluorescence and color of the media surrounding cells. The fluorescence intensity of alamarBlue reagent was directly proportional to cell number. To perform the alamarBlue assay, 10 I of alamarBlue reagent was added to each well and the plate was incubated at 37° C. for an additional 2 hour. Fluorescence intensity was measured at an excitation of 530 nm and an emission of 590 nm using a BioTek Synergy™ 2 microplate reader.
(§4) Cell proliferation assays in triplicate were performed at each concentration. The fluorescent intensity data were analyzed using the computer software, Graphpad Prism. In the absence of the compound, the fluorescent intensity (Ft) in each data set was defined as 100%. In the absence of cells, the fluorescent intensity (Fb) in each data set was defined as 0%. The percent cell in the presence of each compound was calculated according to the following equation: % cell=(F−Fb)/(Ft−Fb), where F=the fluorescent intensity in the presence of the compound, Fb=the fluorescent intensity in the absence of cells, and Ft=the fluorescent intensity in the absence of the compound. The values of % cell versus a series of compound concentrations were then plotted using non-linear regression analysis of Sigmoidal dose-response curve generated with the equation Y=B+(T−B)/1+10^((Log EC50-X)×Hill Slope) where Y=percent cell, B=minimum percent cell, T=maximum percent cell, X=logarithm of compound and Hill Slope=slope factor or Hill coefficient. The IC50 value was determined by the concentration causing a half-maximal percent activity.

[2] = Comparative plasma PK of Compound 1 versus Int 1-4 in male CD-1 mice (study b); format: in vivo; details: male, CD-1, mouse, iv; for AUC(0-inf): read-out: AUC0-inf; for MRT inf: read-out: MRT0-inf; for MRT last: read-out: MRT0-last; for Vd: read-out: Vdss
Procedure: Objectives: to compare the plasma pharmacokinetics and stability of Compound 1 with its non-phosphorylated SMDC analog (Int 1-4) and in plasma following a single intravenous infusion administration of Compound 1 at 11.6 mg/kg and 23.2 mg/kg with Int 1-4 (formulation F1 & F2) at 10.0 mg/kg in male CD-1 mice
PK measurements: compare PK parameters C0, CL, Vdss, Cmax, tmax, t1/2, AUC(0-t), AUC(0-inf), MRT(0-t), MRT(0-inf) for Compound 1 and Int 1-4

[3] = Solubility / formulation; format: physicochemical; details: water; read-out: soluble in water
[4] = system: UT-SCC-9; assay: Tumor cell proliferation (alamarBlue) cytotoxicity assay, UT-SCC-9; format: cell-based, human
Procedure: as §1, §2, §3, §4

[5] = system: UT-SCC-16B; assay: Tumor cell proliferation (alamarBlue) cytotoxicity assay, UT-SCC-16B; format: cell-based, human
Procedure: as §1, §2, §3, §4

[6] = system: UT-SCC-5; assay: Tumor cell proliferation (alamarBlue) cytotoxicity assay, UT-SCC-5; format: cell-based, human
Procedure: as §1, §2, §3, §4

[7] = Compound 1 and gemcitabine plasma PK in the male cynomolgus monkey (study h); format: in vivo
Procedure: Objectives: to compare the plasma pharmacokinetics and stability of the Compound 1 with Int 1-4 and in plasma following a single intravenous infusion administration of Compound 1 at 5 mg/kg and 10 mg/kg with equimolar gemcitabine at 2.28 mg/kg in male cynomolgous monkeys.
PK measurements: compare PK parameters C0, CL, Vdss, Cmax, tmax, t1/2, AUC(0-t), AUC(0-inf), MRT(0-t), MRT(0-inf) for Compound 1 and Int 1-4 with gemcitabine.

[8] = system: UT-SCC-10; assay: Tumor cell proliferation (alamarBlue) cytotoxicity assay, UT-SCC-10; format: cell-based, human
Procedure: as §1, §2, §3, §4

[9] = Mouse plasma stability (Compound 1); format: in vitro ADME
[10] = system: UT-SCC-8; assay: Tumor cell proliferation (alamarBlue) cytotoxicity assay, UT-SCC-8; format: cell-based, human
Procedure: as §1, §2, §3, §4

[11] = system: UT-SCC-16A; assay: Tumor cell proliferation (alamarBlue) cytotoxicity assay, UT-SCC-16A; format: cell-based, human
Procedure: as §1, §2, §3, §4

[12] = system: primary head and neck squamous cell carcinoma cell lines; assay: Cytotoxicity, average over the eight UT-SCC cell lines; format: cell-based, human
Procedure: as §1
UTSCC cells were seeded at 4000 cells/100 I/well on 96-well black clear-bottom tissue culture plate. Cells were incubated at 37° C. and 5% CO2 overnight to allow them to recover and re-attach. The next day cells were treated with the test compound (0-100 μM) for 72 hours. After treatment, cell proliferation was measured by Fluorescent quantitation of alamarBlue reagent. […]
as §3, with “To perform the alamarBlue assay, 10 I of alamarBlue reagent was added to each well and the plate was incubated at 37° C. for an additional 2 hour.” left out
Cell proliferation assays in triplicate were performed at each concentration. The fluorescent intensity data were analyzed using the computer software, Graphpad Prism. […] The IC50 value was determined by the concentration causing a half-maximal percent activity.

[13] = system: UT-SCC-24A; assay: Tumor cell proliferation (alamarBlue) cytotoxicity assay, UT-SCC-24A; format: cell-based, human
Procedure: as §1, §2, §3, §4

[14] = 11.6 mg/kg, after iv Compound 1 11.6 mg/kg
[15] = 23.2 mg/kg, after iv Compound 1 23.2 mg/kg
[16] = Homo sapiens, 72 hours treatment
[17] = plasma, after iv Compound 1 5 mg/kg

Question: What does the source list for `COc1cc(OC)c2oc(COC(=O)Nc3ccn([C@@H]4O[C@H](COP(=O)(O)O)[C@@H](O)C4(F)F)c(=O)n3)cc2c1` [Compound 1, ((2R,3R,5R)-5-(4-((((5,7-dimethoxybenzofuran-2-yl)methoxy)carbonyl)-amino)-2-oxopyrimidin-1(2H)-yl)-4,4-difluoro-3-hydroxytetrahydrofuran-2-yl)methyl hydrogen phosphate triethyl ammonium salt]?
Answer: IC50 ([1]; Homo sapiens, UT-SCC-14, 72 hours treatment): 13 nM; Cytotoxicity IC50 ratio Compound 1/Int 1-4 ([1]; UT-SCC-14): 1.0; Cytotoxicity IC50 ratio Compound 1/gemcitabine ([1]; UT-SCC-14): 2.2; AUC(0-t) [2, 14]: 202 ng·h/mL; C0 [2, 14]: 21900 ng/mL; clearance [2, 14]: 1970 mL/min/kg; half-life [2, 14]: 52.9 s; AUC(0-inf) [2, 14]: 202 ng·h/mL; MRT inf [2, 14]: 39.2 s; MRT last [2, 14]: 38.9 s; Vd [2, 14]: 1.41 L/kg; AUC(0-t) [2, 15]: 103 ng·h/mL; C0 [2, 15]: 2330 ng/mL; clearance [2, 15]: 5190 mL/min/kg; half-life [2, 15]: 131 s; AUC(0-inf) [2, 15]: 105 ng·h/mL; MRT inf [2, 15]: 164 s; MRT last [2, 15]: 153 s; Vd [2, 15]: 12 L/kg; solubility [3]: > 300 mg/mL; IC50 ([4]; Homo sapiens, UT-SCC-9, 72 hours treatment): 53 nM; Cytotoxicity IC50 ratio Compound 1/Int 1-4 ([4]; UT-SCC-9): 1.4; Cytotoxicity IC50 ratio Compound 1/gemcitabine ([4]; UT-SCC-9): 1.5; Cytotoxicity IC50 ratio Compound 1/Int 1-4 [5]: 0.8; Cytotoxicity IC50 ratio Compound 1/gemcitabine [5]: 1.3; IC50 [5, 16]: 130 nM; IC50 ([6]; Homo sapiens, UT-SCC-5, 72 hours treatment): 24 nM; Cytotoxicity IC50 ratio Compound 1/Int 1-4 ([6]; UT-SCC-5): 1.5; Cytotoxicity IC50 ratio Compound 1/gemcitabine ([6]; UT-SCC-5): 2.7; VDss fold lower than Int 1-4 [7]: 10 fold; AUC(0-t) [7, 17]: 1830 ng·h/mL; C0 [7, 17]: 139000 ng/mL; clearance [7, 17]: 46.5 mL/min/kg; half-life [7, 17]: 36 s; MRT inf ([7]; plasma, after iv Compound 1 5 mg/kg, read-out: MRT0-inf): 36 s; MRT last ([7]; plasma, after iv Compound 1 5 mg/kg, read-out: MRT0-last): 36 s; Vd ([7]; plasma, after iv Compound 1 5 mg/kg, read-out: Vdss): 0.0357 L/kg; IC50 ([8]; Homo sapiens, UT-SCC-10, 72 hours treatment): 14 nM; Cytotoxicity IC50 ratio Compound 1/Int 1-4 ([8]; UT-SCC-10): 1.6; Cytotoxicity IC50 ratio Compound 1/gemcitabine ([8]; UT-SCC-10): 1.6; stability in mouse plasma [9]: stable; Slope Mean ± SE ([9]; 3 μM, 37° C.): 0.00413 ± 0.000752; IC50 ([10]; Homo sapiens, UT-SCC-8, 72 hours treatment): 23 nM; Cytotoxicity IC50 ratio Compound 1/Int 1-4 ([10]; UT-SCC-8): 0.7; Cytotoxicity IC50 ratio Compound 1/gemcitabine ([10]; UT-SCC-8): 1.0; Cytotoxicity IC50 ratio Compound 1/Int 1-4 [11]: 0.5; Cytotoxicity IC50 ratio Compound 1/gemcitabine [11]: 1.2; IC50 [11, 16]: 73 nM; average ratio of cytotoxicity IC50 values Compound 1/Int 1-4 [12]: ~1; average ratio of cytotoxicity IC50 values Compound 1/gemcitabine [12]: ~1.6; Cytotoxicity IC50 ratio Compound 1/Int 1-4 [13]: 0.9; Cytotoxicity IC50 ratio Compound 1/gemcitabine [13]: 1.3; IC50 [13, 16]: 18 nM

— patent US11760773B2, “Small molecule drug conjugates of gemcitabine monophosphate” (MaveriX Oncology, Inc., priority 2018, dated 2023)
